The text below walks through data of ChEMBL document CHEMBL1201862, “PubChem BioAssay data set” (2004).

SMILES strings stand for the structures.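 Assay format: 96-well plates, 48-hour exposure. GI50 = concentration required for 50% inhibition of growth.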 Active and inactive are the calls of the source. Cut-off read from the data, not from the text of the source: active = GI50 up to about 1.1 µM and inactive = higher.

Some test systems named below: COLO 205; EKVX; HCT-15; HOP-62; HOP-92; KM12; M14; NCI-H460; OVCAR-5; RPMI-8226; SF-268; SF-539; SK-MEL-28; SK-MEL-5; SK-OV-3; SNB-19; SNB-75; SW-620; UACC-257; UACC-62.
What all share (assay): DTP human tumour cell line panel, 48 h

Take `Nc1n[nH]c(Nc2ccc(Cl)cc2)c1P(=O)(c1ccccc1)c1ccccc1`: the GI50 in the assay on COLO 205 is 49.4 µM (inactive); in the assay on EKVX, 35.2 µM (inactive); in the assay on HCT-15, 28.6 µM; with HOP-62 it was 20.2 µM (inactive); in the assay with HOP-92, 20.8 µM (inactive); with KM12 it was 17.4 µM (inactive). Also, the GI50 with M14 was 21.3 µM (inactive); in the assay with NCI-H460, 21.3 µM (inactive); with OVCAR-5, 18.8 µM (inactive); in the assay on RPMI-8226, 39.5 µM (inactive); in the assay with SF-268 it was 15.2 µM (inactive); in the assay with SF-539, 21.8 µM (inactive). For the same molecule, the GI50 in the assay on SK-MEL-28 was 25.7 µM (inactive); with SK-MEL-5, 20.9 µM (inactive); in the assay on SK-OV-3, 30.8 µM (inactive); in the assay on SNB-19, 26.7 µM (inactive); with SNB-75, 21.6 µM (inactive); in the assay with SW-620, 34.3 µM (inactive). Also, the GI50 is 31.3 µM (inactive) in the assay on UACC-257 and 22.2 µM (inactive) in the assay on UACC-62.

In the case of `CCCCCOc1ccc(/C=N\c2ccc(CCc3ccc(/N=C/c4ccc(OCCCCC)cc4)cc3)cc2)cc1`, the GI50 in the assay with COLO 205 was > 100 µM (inactive); with EKVX, > 100 µM (inactive); in the assay on HCT-15 it was more than 100 µM; with HOP-62, > 100 µM (inactive); with HOP-92, > 100 µM (inactive); in the assay with KM12, > 100 µM (inactive). In addition, the GI50 in the assay with NCI-H460, with OVCAR-5, in the assay on RPMI-8226, with SF-268, with SF-539 and in the assay on SK-MEL-28 was > 100 µM (inactive) in each case. Besides, the GI50 in the assay with SK-MEL-5, in the assay on SK-OV-3, with SNB-19, in the assay with SNB-75, in the assay on SW-620 and with UACC-257 was > 100 µM (inactive) each time. The GI50 in the assay on UACC-62 was > 100 µM (inactive).

On to `Cn1c(=O)c2nc(NCCO)cnc2n(C)c1=O`, for which the GI50 in the assay with COLO 205 was > 100 µM (inactive); in the assay with EKVX, > 100 µM (inactive); in the assay on HCT-15 it was 85.9 µM; with HOP-62 it was 71.1 µM (inactive); with HOP-92, > 100 µM (inactive); in the assay with KM12 it was 27.2 µM (inactive). Also, the GI50 was 68.2 µM (inactive) with M14; 59.7 µM (inactive) in the assay with NCI-H460; > 100 µM (inactive) in the assay on OVCAR-5; 66.4 µM (inactive) in the assay with RPMI-8226; > 100 µM (inactive) with SF-268; 31.8 µM (inactive) with SF-539. For the same molecule, the GI50 was > 100 µM (inactive) in the assay on SK-MEL-28; > 100 µM (inactive) in the assay on SK-MEL-5; > 100 µM (inactive) with SK-OV-3; > 100 µM (inactive) in the assay with SNB-19; 8.73 µM (inactive) with SNB-75; 55.6 µM (inactive) in the assay on SW-620. Further, the GI50 with UACC-257 was > 100 µM (inactive); in the assay on UACC-62, 37.8 µM (inactive).

`Brc1ccc2c(c1)[C@H]1CCc3c([nH]c4ccccc34)[C@H]1N2`: the GI50 is 11.5 µM (inactive) in the assay with COLO 205; 10.8 µM (inactive) in the assay on EKVX; 10.9 µM (inactive) in the assay on HOP-62; 13.3 µM (inactive) with HOP-92; 5.31 µM (inactive) in the assay on KM12; 13.2 µM (inactive) with M14. For the same molecule, the GI50 is 12.4 µM (inactive) with NCI-H460; 11.7 µM (inactive) in the assay with OVCAR-5; 4.39 µM (inactive) in the assay on RPMI-8226; 15.1 µM (inactive) in the assay on SF-268; 2.36 µM (inactive) with SF-539; 14 µM (inactive) with SK-MEL-28. The GI50 in the assay with SK-MEL-5 is 3.13 µM (inactive); in the assay with SK-OV-3, 14.3 µM (inactive); in the assay on SNB-19 it was 13.7 µM (inactive); in the assay with SNB-75 it was 21.3 µM (inactive); in the assay with SW-620, 14.4 µM (inactive); in the assay on UACC-257, 12.8 µM (inactive). Moreover, in the assay on UACC-62, the GI50 was 11.5 µM (inactive).

In the case of `C=C(C)C1Cc2c(c3ccccc3n(C)c2=O)O1` (stereo unspecified), the GI50 in the assay with COLO 205 was > 100 µM (inactive); in the assay with EKVX, > 100 µM (inactive); with HCT-15 it was more than 100 µM; with HOP-62 it was < 0.01 µM (active); with HOP-92, 93.3 µM (inactive); in the assay with M14, > 100 µM (inactive). The GI50 with NCI-H460, in the assay with RPMI-8226, with SF-268, in the assay with SF-539, in the assay on SK-MEL-28 and with SK-MEL-5 was > 100 µM (inactive) throughout. The GI50 in the assay on SK-OV-3, with SNB-19, in the assay on SNB-75, in the assay on SW-620 and in the assay with UACC-62 was > 100 µM (inactive) throughout.

Consider `CN(C)CCCNC(=O)N/N=C\c1cccc2ccccc12`, for which the GI50 is > 10 µM (inactive) in the assay with COLO 205; > 10 µM (inactive) with EKVX; more than 10 µM in the assay on HCT-15; > 10 µM (inactive) in the assay with HOP-62; > 10 µM (inactive) in the assay on HOP-92; > 10 µM (inactive) with KM12. Also, the GI50 with M14, in the assay with NCI-H460, in the assay on OVCAR-5, in the assay with RPMI-8226, with SF-268 and with SF-539 was > 10 µM (inactive) each time. Besides, the GI50 with SK-MEL-28, in the assay with SK-MEL-5, in the assay with SK-OV-3, in the assay with SNB-75, with SW-620 and in the assay on UACC-62 was > 10 µM (inactive) each time.

For `CN(C)CCNC(=O)c1cccc2c(=O)c3ccccc3oc12`, the GI50 is 13.1 µM (inactive) in the assay with COLO 205; > 66.1 µM (inactive) in the assay on EKVX; 37.4 µM in the assay on HCT-15; 38.5 µM (inactive) in the assay with HOP-62; 20.1 µM (inactive) in the assay with HOP-92; 35.4 µM (inactive) in the assay on KM12. Moreover, the GI50 was 28.2 µM (inactive) in the assay on NCI-H460; 24.3 µM (inactive) with OVCAR-5; 29.2 µM (inactive) in the assay with RPMI-8226; 45.2 µM (inactive) with SF-268; 53.3 µM (inactive) with SF-539; 33.7 µM (inactive) in the assay with SK-MEL-28. Besides, the GI50 was 25.2 µM (inactive) in the assay with SK-MEL-5; 25.1 µM (inactive) in the assay on SK-OV-3; 36.9 µM (inactive) in the assay on SNB-19; 32.4 µM (inactive) in the assay with SNB-75; 34.4 µM (inactive) in the assay on SW-620; 26.9 µM (inactive) with UACC-257. Moreover, in the assay with UACC-62, the GI50 was 32.2 µM (inactive).

Consider `COc1cc(C2c3cc4c(cc3[C@@H](Nc3ccccc3)C3COC(=O)[C@H]23)OCO4)cc(OC)c1O` (stereo partly specified), for which the GI50 with COLO 205 was 1.92 µM (inactive); with EKVX, 1.96 µM (inactive); with HCT-15, 0.417 µM; in the assay on HOP-62, 0.155 µM (active); in the assay with HOP-92 it was 0.857 µM (active); in the assay on KM12 it was 1.47 µM (inactive). Besides, the concentration for 50% growth inhibition (GI50) in the assay on NCI-H460 was < 0.01 µM (active); in the assay with OVCAR-5, 1.86 µM (inactive); in the assay on RPMI-8226 it was 0.234 µM (active); with SF-268, 1.04 µM (active); in the assay with SF-539, 0.322 µM (active); in the assay with SK-MEL-28, 2.72 µM (inactive). The GI50 is 0.787 µM (active) in the assay with SK-MEL-5; 0.845 µM (active) in the assay with SK-OV-3; 0.34 µM (active) in the assay on SNB-19; 0.875 µM (active) in the assay on SNB-75; 0.792 µM (active) with SW-620; 0.615 µM (active) in the assay on UACC-257. In addition, the 50% growth inhibitory concentration (GI50) in the assay on UACC-62 is 0.388 µM (active).

The GI50 is the concentration giving 50% growth inhibition.
